This is an account of results in US11345659B2, “Pipecolic esters for inhibition of the proteasome” (THE BOARD OF REGENTS OF THE UNIVERSY OF TEXAS SYSTEM, priority 2018, dated 2022).

Data set [1] in a line: Pilot toxicity study in mice.
Description: Six injections were performed on Mondays, Wednesdays, and Fridays for two weeks, and the weight and overall condition of the mice were monitored.
Another data set concerns the target T1, 20 S proteasome (Homo sapiens, UniProt P25787+P25789).
T1 construct: purified from erythrocytes; purchased Enzo Life Sciences, Inc. (Farmingdale, N.Y.); host or cells: human erythrocytes
The experiment in a line: PGPH peptidase activity of tRpt5-activated 20 S core. In kind it is biochemical. Conditions: core activated with tRpt5. The procedure:
Human housekeeping 20 S and 26 S and complexes purified from erythrocytes were purchased from Enzo Life Sciences, Inc. (Farmingdale, N.Y.). The 1 mg/ml stock 20 S proteasome was diluted to 0.2 mg/ml working solution in 50 mM Tris/HCl, pH 8 containing 20% glycerol (dilution buffer). For the 26 S proteasome stock, the dilution buffer was supplemented with 2 mM ATP, 1 mM MgCl2, and 1 mM DTT (dithiothreitol). […] of fluorescence emitted by 7-amino-4-methylcoumarin ([…]; Bachem Bioscience Inc., Philadelphia, Pa.), used at concentration of 100 μM. Free AMC (Sigma-Aldrich, St. Louis, Mo.) was used as the standard. The Rpt5 C-terminal peptide was synthesized (standard solid-phase peptide chemistry) and purified to at least 98% purity by GenScript (Piscataway, N.J.). The Rpt5 peptide and the peptide substrate were dissolved in dimethylsulfoxide (DMSO) and such stock solutions were stored at −20° C. […]
The reaction was carried out in 96-well plates, in 100 μL of reaction mixture, for 1 hour at 37° C. […] The reaction rates were calculated from a linear segment of kinetic curves constructed from measurements in 1-minutes intervals (Fluoroskan Ascent plate reader; Thermo Fisher Scientific Inc., Waltham, Mass.). Reaction rates were calculated using a linear fit executed by Slope Analyzer and Enzyme Kinetics applications launched within Origin Pro 2017 (OriginLab). […]

Data set [2] has as its target T2, latent core 20 S proteasome (Homo sapiens, UniProt P25787+P25789).
T2 construct: purified from erythrocytes; purchased Enzo Life Sciences, Inc. (Farmingdale, N.Y.); host or cells: human erythrocytes
The experiment in a line: T-L peptidase activity of latent 20 S core. It is filed as biochemical.

Data set [3] deals with T2, latent core 20 S proteasome. The experiment in a line: Competition of compound 3 with tRpt6 peptide, ChT-L activity of latent core. It is filed as biochemical. Conditions: 1 μM compound 3, 2 μM tRpt6. From the text:
According to the most recent model of the 26 S proteasome dynamic cycle, Rpt6 succeeds the Hb-Y—X containing anchor subunits Rpt5, Rpt3, and Rpt2 in docking into the α face pockets and promoting an intermediate conformation between latent and activated (open gate) proteasomes (Dong et al. ([…]) Nature 565(7737): 49-55). […] For comparison, no competition between tRpt5, expected to occupy the α5/α6 pocket, and compound 3 was detected.
Referring to FIG. 4, the C-terminal peptide derived from Rpt6 subunit compromises inhibition of the ChT-L activity of the latent core by the compound 3; however, only when added to the proteasome prior to the inhibitor. […] 1 μM compound 3 and 2 μM tRpt6 were tested. Mean±SD; n=3 to 6.

Data set [4] deals with 20 S proteasome and 19 S regulatory particle (Homo sapiens, UniProt P25787+P25789). The experiment in a line: In vitro reconstruction of 26 S: activation of 20 S core by 19 S regulatory particle. In kind it is biochemical. Conditions: pretreatment 10 minutes RT with 1 μM, 2:1 19 S:20 S, with ATP. The procedure: The 26 S proteasome can be reconstructed in vitro from the purified core (20 S) and regulatory particle (19 S) protein complexes. Activation of the core is considered a measure of effectiveness of the reconstruction. […] The reconstruction was carried out in the presence of ATP (1 mM ATP, 0.5 mM MgCl2, 0.5 mM dithiothreitol), as required for the optimal conditions of the 20 S-19 S binding. Averages and SD from three independent experiments are presented.

The subject of data set [5] is human cultured androgen-resistant prostate cancer PC3 cells. The experiment in a line: Scratch test with PC3 cells. In kind it is cell-based. The following applies: 1 μM, 24 hrs, 0.5 mm gap. Here is the method:
The “scratch test” was performed with human cultured androgen-resistant prostate cancer PC3 cells. The surface of growing confluent cells was scratched to produce a 0.5 mm wide gap. The scratch was photographed at time 0 hrs. and the cells were cultured with vehicle (DMSO; 1:1000) or with 1 μM of compound 3. After 24 hrs the scratch in control culture was almost entirely closed.

[6] abbreviates: 10 and 30 mg/kg intravenously, six injections in two weeks.

Turning to `COc1cc(CCCOC(=O)[C@@H]2CCCCN2C(=O)OCc2ccccc2)cc(OC)c1OC` [Compound 3, 1-benzyl 2-(3-(3,4,5-trimethoxyphenyl)propyl) (S)-piperidine-1,2-dicarboxylate], in data set [1] (setting [6]), the “animals' behavior” value was “No differences in the animals' behavior were noted” and the “body weight versus control mice” value is “did not differ significantly”. Further, the toxicity for mice result in data set [1] (highest tested dose 30 mg/kg) is recorded as “non-toxic for mice up to a highest tested dose of 30 mg/kg”. In addition, on 20 S proteasome, it took 2600 nM to reach half-maximal inhibition (IC50). For the same compound, in data set [2], the IC50 (in general, the concentration that inhibits the measured activity by half) is greater than 50000 nM. For the same compound, the remaining activity at 1 µM in data set [2] (1 μM compound, n=3, read-out: T-L activity, % of the control) is 77%. The remaining activity at 50 µM in data set [2] (50 μM compound, n=4, read-out: T-L activity, % of the control) was determined as 64%. Further, in data set [3], the “inhibition of ChT-L of the core when tRpt6 is added before the compound” value is “significantly attenuated inhibition of the core” and the “inhibition of the core when the compound is preincubated before addition of tRpt6” value is given as “No attenuation was observed”. The “activation of 20 S core by 19 S” value in data set [4] is “strongly attenuated the activation, by about two-thirds”. Further, the “closure of scratch (migration and proliferation)” value in data set [5] is “the scratch was still visible”.
